Read-outs that look alike come from different tables or passages of the source.
Columns and labels:
[1] = system: LAPC4 prostate cancer cells, which express the AKT1 E17K allele; assay: Antiproliferative effects in LAPC4 cells (CellTiter Glo, 72 h); assay type: cell-based; details: read-out: LAPC4 proliferation IC50: GeoMean IC50
Outline: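 IC50 values come from Hill-equation fitting of luminescence (cellular ATP) after 72 h compound exposure. Treated wells held 1,000 cells each, with compound delivered as DMSO dilutions. Culture medium was IMDM plus 12% FBS.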

AKT1 E17K = target: T1, AKT1 E17K (Homo sapiens, UniProt P31749, E17K); assay: Live cell target engagement by NanoBRET competitive probe displacement, AKT1 E17K; assay type: binding; details: transfected HEK293 cells, 2 h at 37° C., read-out: AKT1 E17K IC50: GeoMean IC50
T1 construct: expressed in transfected cells; host or cells: HEK293
T1 sequence (P31749 whole entry E17K): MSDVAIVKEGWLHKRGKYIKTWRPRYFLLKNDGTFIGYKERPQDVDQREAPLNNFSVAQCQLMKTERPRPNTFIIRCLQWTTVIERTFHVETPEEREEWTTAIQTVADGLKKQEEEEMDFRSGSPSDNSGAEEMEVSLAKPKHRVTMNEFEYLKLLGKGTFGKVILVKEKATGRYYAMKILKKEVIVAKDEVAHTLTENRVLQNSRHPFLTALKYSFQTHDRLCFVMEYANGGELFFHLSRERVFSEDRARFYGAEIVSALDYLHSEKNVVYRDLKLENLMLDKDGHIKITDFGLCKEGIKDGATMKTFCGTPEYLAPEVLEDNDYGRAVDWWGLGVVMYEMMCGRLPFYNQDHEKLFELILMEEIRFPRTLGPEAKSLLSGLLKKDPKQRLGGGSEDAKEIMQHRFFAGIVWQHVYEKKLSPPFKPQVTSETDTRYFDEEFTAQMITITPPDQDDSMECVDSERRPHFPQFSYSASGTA

AKT1 WT = target: T2, AKT1 WT (Homo sapiens, UniProt P31749); assay: Live cell target engagement by NanoBRET competitive probe displacement, AKT1 WT; assay type: binding; details: transfected HEK293 cells, 2 h at 37° C., read-out: AKT1 WT IC50: GeoMean IC50
T2 construct: expressed in transfected cells; host or cells: HEK293
T2 sequence (P31749 whole entry): as the sequence (P31749 whole entry E17K) above, with K17E counted along it

AKT2 = target: T3, AKT2 (Homo sapiens, UniProt P31751); assay: Live cell target engagement by NanoBRET competitive probe displacement, AKT2; assay type: binding; details: transfected HEK293 cells, 2 h at 37° C., read-out: AKT2 IC50: GeoMean IC50
T3 construct: expressed in transfected cells; host or cells: HEK293
T3 sequence (P31751 whole entry): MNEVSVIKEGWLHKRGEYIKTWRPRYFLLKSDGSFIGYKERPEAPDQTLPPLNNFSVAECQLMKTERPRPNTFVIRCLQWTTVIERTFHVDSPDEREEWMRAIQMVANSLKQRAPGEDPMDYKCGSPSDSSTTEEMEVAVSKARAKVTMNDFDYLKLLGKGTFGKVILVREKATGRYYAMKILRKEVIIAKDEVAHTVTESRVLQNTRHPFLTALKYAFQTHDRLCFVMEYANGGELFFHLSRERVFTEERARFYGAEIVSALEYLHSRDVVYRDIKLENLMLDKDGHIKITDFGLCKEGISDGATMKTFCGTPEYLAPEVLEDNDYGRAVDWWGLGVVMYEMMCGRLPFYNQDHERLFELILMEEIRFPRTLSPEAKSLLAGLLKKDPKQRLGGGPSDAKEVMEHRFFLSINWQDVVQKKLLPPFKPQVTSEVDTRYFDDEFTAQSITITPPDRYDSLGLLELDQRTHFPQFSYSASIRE

| SMILES | IC50 [1] [nM] | IC50 (AKT1 E17K) [nM] | IC50 (AKT1 WT) [nM] | IC50 (AKT2) [nM] | IC50 ([1]; Homo sapiens, LAPC4, 72 h) [nM] |
| --- | --- | --- | --- | --- | --- |
| Nc1ncccc1-c1nc2ccc(-n3cccn3)nc2n1-c1ccc2c(c1)CC(F)[C@@H]2NC(=O)c1cc(C=O)c(O)cc1F (single isomer, unassigned) [Example 259, N-((1R,2S*)-5-(2-(2-aminopyridin-3-yl)-5-(1H-pyrazol-1-yl)-3H-imidazo[4,5-b]pyridin-3-yl)-2-fluoro-2,3-dihydro-1H-inden-1-yl)-2-fluoro-5-formyl-4-hydroxybenzamide] | 10 to 100 | 10 to 100 | 10 to 100 | 100 to 2000 | – |
| Nc1ncccc1-c1nc2ccc(-n3ccc(C(F)F)n3)nc2n1-c1ccc2c(c1)CC[C@@H]2NC(=O)c1ccc(O)c(C=O)c1 [Example 116, (S)—N-(5-(2-(2-aminopyridin-3-yl)-5-(3-(difluoromethyl)-1H-pyrazol-1-yl)-3H-imidazo[4,5-b]pyridin-3-yl)-2,3-dihydro-1H-inden-1-yl)-3-formyl-4-hydroxybenzamide] | – | 10 to 100 | 10 to 100 | 100 to 2000 | 100 to 2000 |
| Nc1ncccc1-c1nc2ccc(-c3cnn(C4CC4)c3)nc2n1-c1ccc2c(c1)CC[C@@H]2NC(=O)c1ccc(O)c(C=O)c1 [Example 62, N-[(1S)-5-[2-(2-aminopyridin-3-yl)-5-(1-cyclopropylpyrazol-4-yl)imidazo[4,5-b]pyridin-3-yl]-2,3-dihydro-1H-inden-1-yl]-3-formyl-4-hydroxybenzamide] | – | 10 to 100 | 10 to 100 | 100 to 2000 | 100 to 2000 |
| Nc1ncccc1-c1nc2ccc(-n3cccn3)nc2n1-c1ccc2c(c1)CC[C@@H]2NC(=O)c1cc(C=O)c(O)c2ncoc12 [Example 253, N-[(1S)-5-[2-(2-aminopyridin-3-yl)-5-(pyrazol-1-yl)imidazo[4,5-b]pyridin-3-yl]-2,3-dihydro-1H-inden-1-yl]-5-formyl-4-hydroxy-1,3-benzoxazole-7-carboxamide] | – | 100 to 2000 | 100 to 2000 | 100 to 2000 | 100 to 2000 |
| Nc1ncccc1-c1nc2ccc(-n3cccn3)nc2n1-c1ccc2c(c1)CC[C@@H]2n1c(=O)[nH]c2cc(O)c(C=O)cc2c1=O [Example 238, 3-[(1S)-5-[2-(2-aminopyridin-3-yl)-5-(pyrazol-1-yl)imidazo[4,5-b]pyridin-3-yl]-2,3-dihydro-1H-inden-1-yl]-7-hydroxy-2,4-dioxo-1H-quinazoline-6-carbaldehyde] | – | 100 to 2000 | ≥ 2000 | ≥ 2000 | ≥ 2000 |
| Nc1ncccc1-c1nc2ccc(OC3CC3)nc2n1-c1ccc2c(c1)CC[C@@H]2NC(=O)c1ccc(O)c(C=O)c1 [Example 32, N-[(1S)-5-[2-(2-aminopyridin-3-yl)-5-cyclopropoxyimidazo[4,5-b]pyridin-3-yl]-2,3-dihydro-1H-inden-1-yl]-3-formyl-4-hydroxybenzamide] | – | 10 to 100 | 100 to 2000 | ≥ 2000 | 100 to 2000 |
| CN(C)c1cc(C(=O)N[C@H]2CCc3cc(-n4c(-c5cccnc5N)nc5ccc(-n6cccn6)nc54)ccc32)cc(C=O)c1O [Example 228, N-[(1S)-5-[2-(2-aminopyridin-3-yl)-5-(pyrazol-1-yl)imidazo[4,5-b]pyridin-3-yl]-2,3-dihydro-1H-inden-1-yl]-3-(dimethylamino)-5-formyl-4-hydroxybenzamide] | – | 10 to 100 | 100 to 2000 | ≥ 2000 | 100 to 2000 |
| Nc1ncccc1-c1nc2ccc(-c3ccccc3F)nc2n1-c1ccc2c(c1)CC[C@@H]2NC(=O)c1ccc(O)c(C=O)c1 [Example 21, N-[(1S)-5-[2-(2-aminopyridin-3-yl)-5-(2-fluorophenyl)imidazo[4,5-b]pyridin-3-yl]-2,3-dihydro-1H-inden-1-yl]-3-formyl-4-hydroxybenzamide] | – | 10 to 100 | 10 to 100 | 10 to 100 | 10 to 100 |
| Nc1ncccc1-c1nc2ccc(-n3cccn3)nc2n1-c1ccc2c(c1)CC[C@@H]2N1Cc2cc(O)c(C=O)cc2C1=O [Example 208, (S)-2-(5-(2-(2-aminopyridin-3-yl)-5-(1H-pyrazol-1-yl)-3H-imidazo[4,5-b]pyridin-3-yl)-2,3-dihydro-1H-inden-1-yl)-6-hydroxy-3-oxoisoindoline-5-carbaldehyde] | – | ≥ 2000 | ≥ 2000 | ≥ 2000 | ≥ 2000 |
| COCc1cc(-n2cccn2)nc2c1nc(-c1cccnc1N)n2-c1ccc2c(c1)CC[C@@H]2NC(=O)c1ccc(O)c(C=O)c1 [Example 210, N-[(1S)-5-[2-(2-aminopyridin-3-yl)-7-(methoxymethyl)-5-(pyrazol-1-yl)imidazo[4,5-b]pyridin-3-yl]-2,3-dihydro-1H-inden-1-yl]-3-formyl-4-hydroxybenzamide] | – | 10 to 100 | 10 to 100 | 100 to 2000 | 100 to 2000 |
| Cc1cc(-n2ccc(F)n2)nc2c1nc(-c1cccnc1N)n2-c1ccc2c(c1)CC[C@@H]2NC(=O)c1ccc(O)c(C=O)c1 [Example 181, (S)—N-(5-(2-(2-aminopyridin-3-yl)-5-(3-fluoro-1H-pyrazol-1-yl)-7-methyl-3H-imidazo[4,5-b]pyridin-3-yl)-2,3-dihydro-1H-inden-1-yl)-3-formyl-4-hydroxybenzamide] | – | 10 to 100 | 10 to 100 | 100 to 2000 | 100 to 2000 |
| Nc1ncccc1-c1nc2ccc(-c3ccccc3)nc2n1-c1ccc2c(c1)CC[C@@H]2NC(=O)c1ccc(O)c(C=O)n1 [Example 89, (S)—N-(5-(2-(2-aminopyridin-3-yl)-5-phenyl-3H-imidazo[4,5-b]pyridin-3-yl)-2,3-dihydro-1H-inden-1-yl)-6-formyl-5-hydroxypicolinamide] | – | 100 to 2000 | 10 to 100 | 100 to 2000 | 100 to 2000 |
| Nc1ncccc1-c1nc2ccc(-c3ncco3)nc2n1-c1ccc2c(c1)CC[C@@H]2NC(=O)c1cc(C=O)c(O)c(F)c1F [Example 150, N-[(1S)-5-[2-(2-aminopyridin-3-yl)-5-(1,3-oxazol-2-yl)imidazo[4,5-b]pyridin-3-yl]-2,3-dihydro-1H-inden-1-yl]-2,3-difluoro-5-formyl-4-hydroxybenzamide] | – | 10 to 100 | 10 to 100 | 100 to 2000 | 10 to 100 |
| Nc1ncccc1-c1nc2ccc(-c3ccccc3)nc2n1-c1ccc2c(c1)CC[C@@H]2NC(=O)c1cc(C=O)c(O)cc1Cl [Example 34, N-[(1S)-5-[2-(2-aminopyridin-3-yl)-5-phenylimidazo[4,5-b]pyridin-3-yl]-2,3-dihydro-1H-inden-1-yl]-2-chloro-5-formyl-4-hydroxybenzamide] | – | 10 to 100 | 10 to 100 | 100 to 2000 | 100 to 2000 |
| Nc1ncccc1-c1nc2ccc(-n3cccn3)nc2n1-c1ccc2c(c1)CC[C@@H]2NC(=O)c1cc(F)c(O)c(C=O)c1 [Example 81, N-[(1S)-5-[2-(2-aminopyridin-3-yl)-5-(pyrazol-1-yl)imidazo[4,5-b]pyridin-3-yl]-2,3-dihydro-1H-inden-1-yl]-3-fluoro-5-formyl-4-hydroxybenzamide] | – | 10 to 100 | 10 to 100 | 100 to 2000 | 100 to 2000 |
| Cc1ccn(-c2ccc3nc(-c4cccnc4N)n(-c4ccc5c(c4)CC[C@@H]5NC(=O)c4ccc(O)c(C=O)c4)c3n2)n1 [Example 95, N-[(1S)-5-[2-(2-aminopyridin-3-yl)-5-(3-methylpyrazol-1-yl)imidazo[4,5-b]pyridin-3-yl]-2,3-dihydro-1H-inden-1-yl]-3-formyl-4-hydroxybenzamide] | – | 10 to 100 | 10 to 100 | 100 to 2000 | 10 to 100 |
| Cc1cc(C)n(-c2ccc3nc(-c4cccnc4N)n(-c4ccc5c(c4)CC[C@@H]5NC(=O)c4ccc(O)c(C=O)c4)c3n2)n1 [Example 129, N-[(1S)-5-[2-(2-aminopyridin-3-yl)-5-(3,5-dimethylpyrazol-1-yl)imidazo[4,5-b]pyridin-3-yl]-2,3-dihydro-1H-inden-1-yl]-3-formyl-4-hydroxybenzamide] | – | 10 to 100 | 10 to 100 | 100 to 2000 | 100 to 2000 |
| Cc1nnc(-c2ccc3nc(-c4cccnc4N)n(-c4ccc5c(c4)CC[C@@H]5NC(=O)c4ccc(O)c(C=O)c4)c3n2)s1 [Example 203, N-[(1S)-5-[2-(2-aminopyridin-3-yl)-5-(5-methyl-1,3,4-thiadiazol-2-yl)imidazo[4,5-b]pyridin-3-yl]-2,3-dihydro-1H-inden-1-yl]-3-formyl-4-hydroxybenzamide] | – | 10 to 100 | 10 to 100 | 100 to 2000 | 100 to 2000 |
| Nc1ncccc1-c1nc2ccc(-n3ccc(Cl)n3)nc2n1-c1ccc2c(c1)CC[C@@H]2NC(=O)c1ccc(O)c(C=O)c1 [Example 96, (S)—N-(5-(2-(2-aminopyridin-3-yl)-5-(3-chloro-1H-pyrazol-1-yl)-3H-imidazo[4,5-b]pyridin-3-yl)-2,3-dihydro-1H-inden-1-yl)-3-formyl-4-hydroxybenzamide] | – | 10 to 100 | 100 to 2000 | 100 to 2000 | 100 to 2000 |
| Nc1ncccc1-c1nc2ccc(N3CCOCC3)nc2n1-c1ccc2c(c1)CC[C@@H]2NC(=O)c1ccc(O)c(C=O)c1 [Example 42, N-[(1S)-5-[2-(2-aminopyridin-3-yl)-5-(morpholin-4-yl)imidazo[4,5-b]pyridin-3-yl]-2,3-dihydro-1H-inden-1-yl]-3-formyl-4-hydroxybenzamide] | – | 10 to 100 | 100 to 2000 | 100 to 2000 | 100 to 2000 |

— patent US20260053834A1, “COVALENT MODIFIERS OF AKT1 AND USES THEREOF” (Terremoto Biosciences, Inc., priority 2023, published 2026)
